Laboratory results from patent publication US5196421A, “Excitatory amino acid receptor antagonists in methods for the use thereof” (priority 1992, dated 1993).
Several values for one entry are separate records, joined by “and”; a condition that tells them apart may be missing. Equal entries are not always repeated.

Experiments:
[1] = biological target: T1, Strychnine-Insensitive [^3 H]Glycine Binding Sites, washed membranes of rat brain cortex (Rattus norvegicus, UniProt P35439); test: biochemical; details: for inhibition at 10 µM: 1 h, read-out: [^3 H]-Glycine Binding % DSPL10 @ 10 μM, 10 μM test compound, 60 minutes on ice
T1 construct: washed membranes of rat brain cortex; from tissue; host or cells: brain cortex membranes, male Sprague-Dawley rats (150-175 g)
Protocol: (§1) Referring to Table IV, there are shown the results obtained in testing a representative number of these compounds. In Table IV, the activity of the compounds for EAA receptor binding is indicated. Compounds were evaluated for their ability to displace [^3 H]-CGS191755, [^3 H]-glycine, [^3 H]-AMPA and [^3 H]-kainate at a screening concentration of 10 μM.
(§2) Binding assays, except for glycine binding, were performed in accordance with the methods described in Schoepp et al., J. Pharmacology and Exp. Therap., Vol. 255, No. 3, pp. 1301-1308 (1990). For all binding assays, male Sprague-Dawley rats (150-175 g) were used. Displacement of the specific binding of ^3 H]CGS19755 (10 nM) to Triton-X-treated synaptosomal membranes of rat forebrain was used to determine NMDA receptor affinity. Nonspecific binding was determined using 10 μM L-glutamate. Samples were incubated in an ice bath for 30 minutes, and bound ligand was separated from the free ligand by rapid filtration through Whatman GF/B glass fiber filters.
The compounds were examined for their ability to displace [^3 H]-glycine from washed membranes of rat brain cortex according to the methods of Shinohara et al., "Ontogeny of Strychnine-Insensitive [^3 H]Glycine Binding Sites in Rat Forebrain", Neurosci. Lett. 105 (1990) 307-311. In each assay, […] [^3 H]-glycine and 25 μg tissue were incubated with test compounds (10 μM in a total volume of 0.5 ml for 60 minutes on ice; incubations were terminated by centrifugation. Non-specific binding was defined as that remaining in the presence of 10 μM D-serine.

[2] = test system: AMPA receptor ([^3 H]AMPA binding, crude membranes of rat forebrain); test: [^3 H]-AMPA displacement, EAA receptor binding; details: 10 μM test compound, [^3 H]AMPA 5 nM, 100 mM KSCN
Protocol: as §1, §2
The binding of [^3 H]AMPA (5 nM) was conducted with crude membranes of rat forebrain in the presence of 100 mM KSCN, as described by Nielsen et al., "Studies on Receptor-Active Conformations of Excitatory Amino Acid Agonists and Antagonists," Eur. J. Med. Chem. Chim. Ther. 21:433-437 (1986). Nonspecific binding was determined with 10 μM nonlabeled AMPA.

[3] = test system: kainate (KA) receptor ([^3 H]Kainate binding, washed synaptosomal membranes from the rat forebrain); test: [^3 H]-kainate displacement, EAA receptor binding; details: 10 μM test compound, [^3 H]Kainate 5 nM, pH 7.4, 30 min
Protocol: as §1, §2
[^3 H]Kainate binding was performed using washed synaptosomal membranes from the rat forebrain, prepared as described by Simon et al., "Binding of [^3 H]Kainic Acid, an Analogue of L-Glutamate, to Brain Membranes," J. Neurochem. 26:141-147 (1976). [^3 H]Kainate (5 nM) was added to 50 mM Tris-HCl buffer (pH 7.4 at 4°) containing 200-300 μg/ml of tissue protein. Samples were incubated for 30 minutes in an ice bath and then rapidly filtered using a Brandel cell harvester and Whatman GF/C filters. Filters were washed twice with 3 ml of cold buffer. Nonspecific binding was determined using 100 μM nonlabeled kainate.

| SMILES | inhibition at 10 µM [1] [%] | AMPA % DSPL @ 10 μM [2] [%] | KA % DSPL @ 10 μM [3] [%] | AMPA % DSPL @ 10 μM ([2]; 10 µM) | [^3 H]-Glycine Binding % DSPL10 @ 10 μM ([1]; 10 μM test compound, 60 minutes on ice, 60 min, 10 µM) | KA % DSPL @ 10 μM ([3]; 10 µM) |
| --- | --- | --- | --- | --- | --- | --- |
| Cc1nnc2cnc3cc(Cl)c(Cl)cc3n12 [Compound 1, 1-methyl-7,8-dichloro-1,2,4-triazolo[4,3-a]quinoxaline] | 0 | 35.1 | 16.8 |  |  |  |
| Cc1nnc2c(=O)[nH]c3cc(Cl)c(Cl)cc3n12 [Compound 2, 1-methyl-7,8-dichloro-1,2,4-triazolo[4,3-a]quinoxalin-4(5H)-one] | 18 |  | 28.0 | 78.3% and 75.1% |  |  |
| CCc1nnc2cnc3cc(Cl)c(Cl)cc3n12 [Compound 3, 1-ethyl-7,8-dichloro-1,2,4-triazolo[4,3-a]quinoxaline] | 63 | 7.9 | 12.0 |  |  |  |
| CCc1nnc2c(=O)[nH]c3cc(Cl)c(Cl)cc3n12 [Compound 4, 1-ethyl-7,8-dichloro-1,2,4-triazolo[4,3-a]quinoxalin-4(5H)-one] | 53 |  | 21.4 | 55.1% and 52.3% |  |  |
| CCCc1nnc2cnc3cc(Cl)c(Cl)cc3n12 [Compound 5, 1-n-propyl-7,8-dichloro-1,2,4-triazolo[4,3-a]quinoxaline] | 2 | -1.6 | 3.9 |  |  |  |
| CCCc1nnc2c(=O)[nH]c3cc(Cl)c(Cl)cc3n12 [Compound 6, 1-n-propyl-7,8-dichloro-1,2,4-triazolo[4,3-a]quinoxalin-4(5H)-one] | 75 |  | 32.1 | 77.1% and 85.6% |  |  |
| CCCCc1nnc2cnc3cc(Cl)c(Cl)cc3n12 [Compound 7, 1-n-butyl-7,8-dichloro-1,2,4-triazolo[4,3-a]quinoxaline] | -2 | 4.2 | -6.4 |  |  |  |
| CCCCc1nnc2c(=O)[nH]c3cc(Cl)c(Cl)cc3n12 [Compound 8, 1-n-butyl-7,8-dichloro-1,2,4-triazolo[4,3-a]quinoxalin-4(5H)-one] | 60 |  | 33.8 |  |  |  |
| FC(F)(F)c1nnc2cnc3cc(Cl)c(Cl)cc3n12 [Compound 9, 1-trifluoromethyl-7,8-dichloro-1,2,4-triazolo[4,3-a]quinoxaline] | -6 |  |  |  |  |  |
| O=c1[nH]c2cc(Cl)c(Cl)cc2n2c(C(F)(F)F)nnc12 [Compound 10, 1-trifluoromethyl-7,8-dichloro-1,2,4-triazolo [4,3-a]quinoxalin-4(5H)-one] | 40 |  | 12.5 | 56.8% and 38.5% |  |  |
| Clc1cc2ncc3nnc(-c4ccccc4)n3c2cc1Cl [Compound 11, 1-phenyl-7,8-dichloro-1,2,4-triazolo[4,3-a]quinoxaline] | -3 | 1.7 | 9.1 |  |  |  |
| O=c1[nH]c2cc(Cl)c(Cl)cc2n2cnnc12 [Compound 12a, 7,8-dichloro-1,2,4-triazolo[4,3-a]quinoxalin-4(5H)-one] |  |  |  | 64.3% and 67.9% | 79% and 42% |  |
| O=c1[nH]c2cc(Cl)cc(Cl)c2n2cnnc12 [Compound 14a, 7,9-dichloro-1,2,4-triazolo[4,3a]quinoxalin-4(5H)-one] | 87 |  |  |  |  |  |
| O=c1[nH]c2cc([N+](=O)[O-])c([N+](=O)[O-])cc2n2nnnc12 [Compound 25, 7,8-dinitrotetrazolo[1,5-a]quinoxalin-4(5H)-one] | 3 |  |  |  |  | 0.4% and -2.1% |
| O=c1[nH]c2cc(Cl)c(Cl)cc2n2nnnc12 [Compound 27a, 7,8-dichlorotetrazolo[1,5-a]quinoxalin-4(5H)-one] | 37 | 38 |  |  |  |  |
| O=c1[nH]c2cc(Cl)c(Cl)cc2c2ccnn12 [Compound 32, 8,9-dichloropyrazolo[1,5-c]quinazolin-5(6H)-one] |  |  | -0.1 | 4.9% and 9.3% |  |  |
